{"source": "patent US11737999B2", "about": "“Amino acid compositions and methods for the treatment of post-acute sequelae of COVID-19” (AXCELLA HEALTH INC., priority 2021, dated 2023)", "key": {"[1]": {"test_system": "MCP1/CCL2", "assay": "MCP1/CCL2 secretion by ELISA in primary human hepatocytes with FFA + TNFα", "format": "cell-based"}, "[2]": {"test_system": "MCP-1", "assay": "MCP-1 chemokine secretion in primary human hepatic stellate cells stimulated with TNFα", "format": "cell-based"}, "[3]": {"test_system": "IL-6", "assay": "IL-6 cytokine secretion in primary human hepatic stellate cells stimulated with TNFα", "format": "cell-based", "settings": "for Fold Change IL-6 Secretion Normalized Per Cell: Isoleucine 66 μM (plasma level, reference)"}, "[4]": {"test_system": "Col1a1", "assay": "Col1a1 gene expression (RT-qPCR) in primary human hepatic stellate cells stimulated with TGFβ1", "format": "cell-based", "settings": "for Col1a1 Fold Expression Relative to Control, Mean: single amino acid"}, "[5]": {"test_system": "Procollagen Iα1", "assay": "Procollagen Iα1 secretion (ELISA) in primary human hepatic stellate cells stimulated with TGFβ1", "format": "cell-based", "settings": "for Procollagen lα1 Secretion (Fold Change of 1X), Mean: first donor; for Procollagen lα1 Secretion (Fold Change of 1X), Mean / Procollagen Iα1 Secretion, Mean: single amino acid"}, "[6]": {"test_system": "IL-6", "assay": "LPS-induced IL-6 secretion in primary human monocyte-derived macrophages", "settings": "for IL-6 Measurements, Mean: LPS, baseline subtracted values"}, "[7]": {"test_system": "TNF-α", "assay": "LPS-induced TNF-α secretion in primary human monocyte-derived macrophages", "settings": "for TNF-α Measurements Mean (baseline subtracted): 0.15 ng/mL LPS"}, "[8]": {"settings": "hepatic stellate cells, three donors"}, "[9]": {"settings": "Donor 1, Conc. 66 μM (baseline)"}}}
{"smiles": "CC[C@H](C)[C@H](N)C(=O)O", "note": "[Isoleucine, L-Isoleucine]", "values": [{"measurement": "MCP1 expression relative to Control, Mean", "setting": "[1]; Donor 1, Conc. 66 μM", "result": "−1.2E−15"}, {"measurement": "MCP1 expression relative to Control, Mean", "setting": "[1]; Donor 1, Conc. 1328 μM", "result": "−0.3073"}, {"measurement": "MCP1 expression relative to Control, Mean", "setting": "[1]; Donor 1, Conc. 3320 μM", "result": "−2.417"}, {"measurement": "MCP1 expression relative to Control, Mean", "setting": "[1]; Donor 1, Conc. 6639 μM", "result": "−0.205"}, {"measurement": "MCP1 expression relative to Control, Mean", "setting": "[1]; Donor 2, Conc. 66 μM", "result": 0}, {"measurement": "MCP1 expression relative to Control, Mean", "setting": "[1]; Donor 2, Conc. 1328 μM", "result": 26.62}, {"measurement": "MCP1 expression relative to Control, Mean", "setting": "[1]; Donor 2, Conc. 3320 μM", "result": "−5.645"}, {"measurement": "MCP1 expression relative to Control, Mean", "setting": "[1]; Donor 2, Conc. 6639 μM", "result": 18.62}, {"measurement": "MCP1/CCL2 secretion (summary in words)", "setting": "[1]; primary human hepatocytes, two healthy donors", "result": "did not have an effect on MCP1/CCL2 secretion"}, {"measurement": "Fold Change MCP1 Secretion Normalized Per Cell, Mean", "setting": "[2]; donor 3, Conc. 66 μM", "result": 1.0000, "unit": "Fold Change"}, {"measurement": "Fold Change MCP1 Secretion Normalized Per Cell", "setting": "[2]; donor 4, Isoleucine 66 μM (plasma level, reference)", "result": 1.0000, "unit": "fold change"}, {"measurement": "Fold Change IL-6 Secretion Normalized Per Cell", "setting": "[3]; donor 1", "result": 1.0000, "unit": "fold change"}, {"measurement": "Fold Change IL-6 Secretion Normalized Per Cell", "setting": "[3]; donor 2", "result": 1.0000, "unit": "fold change"}, {"measurement": "IL-6 secretion (summary in words)", "setting": "[3]; hepatic stellate cells, two donors", "result": "no significant effect on IL-6 secretion"}, {"measurement": "Col1a1 Fold Expression Relative to Control, Mean", "setting": "[4]; first donor, 3320 μM", "result": 1.10, "unit": "fold"}, {"measurement": "Col1a1 gene expression (summary in words)", "setting": "[4]; [8]", "result": "did not significantly change Col1a1 gene expression in any donor"}, {"measurement": "Col1a1 Fold Expression Relative to Control, Mean", "setting": "[4]; second donor (Table 27), 66 μM (baseline)", "result": 1.00, "unit": "fold"}, {"measurement": "Col1a1 Fold Expression Relative to Control, Mean", "setting": "[4]; second donor (Table 27), 1328 μM", "result": 0.97, "unit": "fold"}, {"measurement": "Col1a1 Fold Expression Relative to Control, Mean", "setting": "[4]; second donor (Table 27), 3320 μM", "result": 0.99, "unit": "fold"}, {"measurement": "Col1a1 Fold Expression Relative to Control, Mean", "setting": "[4]; second donor (Table 27), 6639 μM", "result": 1.03, "unit": "fold"}, {"measurement": "Col1a1 Fold Expression Relative to Control, Mean", "setting": "[4]; second donor (Table 29), 1328 μM", "result": 0.94, "unit": "fold"}, {"measurement": "Col1a1 Fold Expression Relative to Control, Mean", "setting": "[4]; second donor (Table 29), 3320 μM", "result": 0.94, "unit": "fold"}, {"measurement": "Col1a1 Fold Expression Relative to Control, Mean", "setting": "[4]; second donor (Table 29), 6639 μM", "result": 1.03, "unit": "fold"}, {"measurement": "Procollagen lα1 Secretion (Fold Change of 1X), Mean", "setting": "[5]; 1328 μM", "result": 0.9229, "unit": "fold"}, {"measurement": "Procollagen lα1 Secretion (Fold Change of 1X), Mean", "setting": "[5]; 3320 μM", "result": 1.1366, "unit": "fold"}, {"measurement": "Procollagen lα1 Secretion (Fold Change of 1X), Mean", "setting": "[5]; 6639 μM", "result": 1.2144, "unit": "fold"}, {"measurement": "procollagen Iα1 secretion (summary in words)", "setting": "[5]; [8]", "result": "significantly increased procollagen Iα1 secretion in two of three donors"}, {"measurement": "Procollagen Iα1 Secretion, Mean", "setting": "[5]; second donor, Conc. 66 μM (baseline)", "result": "1.0000 Fold Change of 1×"}, {"measurement": "Procollagen Iα1 Secretion, Mean", "setting": "[5]; second donor, Conc. 1328 μM", "result": "1.4811 Fold Change of 1×"}, {"measurement": "Procollagen Iα1 Secretion, Mean", "setting": "[5]; second donor, Conc. 3320 μM", "result": "1.4940 Fold Change of 1×"}, {"measurement": "Procollagen Iα1 Secretion, Mean", "setting": "[5]; second donor, Conc. 6639 μM", "result": "1.5423 Fold Change of 1×"}, {"measurement": "Procollagen Iα1 Secretion, Mean", "setting": "[5]; third donor, Conc. 66 μM (baseline)", "result": "1.0000 Fold Change of 1×"}, {"measurement": "Procollagen Iα1 Secretion, Mean", "setting": "[5]; third donor, Conc. 1328 μM", "result": "1.2687 Fold Change of 1×"}, {"measurement": "Procollagen Iα1 Secretion, Mean", "setting": "[5]; third donor, Conc. 3320 μM", "result": "1.2703 Fold Change of 1×"}, {"measurement": "Procollagen Iα1 Secretion, Mean", "setting": "[5]; third donor, Conc. 6639 μM", "result": "1.4465 Fold Change of 1×"}, {"measurement": "IL-6 Measurements, Mean", "setting": "[6]; [9]", "result": 0}, {"measurement": "IL-6 Measurements, Mean", "setting": "[6]; Donor 2, Conc. 1328 μM", "result": "−2.318"}, {"measurement": "IL-6 Measurements, Mean", "setting": "[6]; Donor 2, Conc. 3320 μM", "result": 2.305}, {"measurement": "IL-6 Measurements, Mean", "setting": "[6]; Donor 2, Conc. 6639 μM", "result": "−1.774"}, {"measurement": "IL-6 Measurements Mean (baseline subtracted)", "setting": "[6]; Donor 3, Conc. 3320 μM, 0.15 ng/mL LPS", "result": 0}, {"measurement": "TNF-α Measurements Mean (baseline subtracted)", "setting": "[7]; [9]", "result": 0}, {"measurement": "TNF-α Measurements Mean (baseline subtracted)", "setting": "[7]; Donor 1, Conc. 1328 μM", "result": "−42.68"}, {"measurement": "TNF-α Measurements Mean (baseline subtracted)", "setting": "[7]; Donor 1, Conc. 3320 μM", "result": "−96.3"}, {"measurement": "TNF-α Measurements Mean (baseline subtracted)", "setting": "[7]; Donor 1, Conc. 6639 μM", "result": "−40.95"}, {"measurement": "LPS-induced TNF-α secretion (summary in words)", "setting": "[7]; Donor 2", "result": "increased TNF-α secretion"}, {"measurement": "TNF-α Measurements Mean (baseline subtracted)", "setting": "[7]; Donor 2, Conc. 66 μM (baseline)", "result": "4.74E−15"}, {"measurement": "TNF-α Measurements Mean (baseline subtracted)", "setting": "[7]; Donor 2, Conc. 1328 μM", "result": 2.919}, {"measurement": "TNF-α Measurements Mean (baseline subtracted)", "setting": "[7]; Donor 2, Conc. 3320 μM", "result": 10.26}, {"measurement": "TNF-α Measurements Mean (baseline subtracted)", "setting": "[7]; Donor 2, Conc. 6639 μM", "result": 19.26}, {"measurement": "TNF-α Measurements Mean (baseline subtracted)", "setting": "[7]; Donor 3, Conc. 66 μM (baseline)", "result": "−2.4E−15"}, {"measurement": "TNF-α Measurements Mean (baseline subtracted)", "setting": "[7]; Donor 3, Conc. 1328 μM", "result": "−6.23"}, {"measurement": "TNF-α Measurements Mean (baseline subtracted)", "setting": "[7]; Donor 3, Conc. 3320 μM", "result": 3.309}, {"measurement": "TNF-α Measurements Mean (baseline subtracted)", "setting": "[7]; Donor 3, Conc. 6639 μM", "result": "−1.66"}]}
